# Data taken from patent US20240066119A1, “METHODS AND PLATFORMS FOR ELICITING AN IMMUNE RESPONSE IN THE TREATMENT OF CANCER AND COMPOSITIONS AND VACCINES RELATING THERETO” (University of Maryland, College Park, priority 2021, published 2024).
# Tested on: lymphocyte egress from lymphoid tissues
# Experiment: Inhibition of lymphocyte trafficking with FTY720
# Assay type: in vivo, C57BL6 mice
# Conditions: FTY720 1 mg/kg daily i.p., day 7 after vaccination
# Method: Investigation of Adjuvant-Involvement on Split LN Treatments and Effect of Inhibition of Lymphocyte Trafficking on Antigen Specificity. To determine the influence of adjuvant (PolyIC) delivery in the Split LN treatment group on antigen-specificity as quantified by SIINFEKL tetramer, mice were treated as described above for Split LN treatment with soluble OVA and either PolyIC MPs or with PBS. Antigen-specific CD8^+ T cells in the blood and LNs were quantified using SIINFEKL tetramer as described above. Antigen-specific T cells were reported as a percentage of Live, CD8^+ cells. In studies to determine the effect of lymphocyte trafficking on local and systemic antigen-specificity, FTY720 (Sigma) was administered daily at 1 mg/kg via intraperitoneal injection one day prior to vaccination until the end of the experiment (7 days after vaccination). Following vaccination, antigen-specific CD8^+ T cells in the blood and LNs were quantified using SIINFEKL tetramer as described above and reported as a percentage of Live, CD8^+ cells and an overall number of cells from an identical acquisition volume (80 μL).
smiles,measurement,value
CCCCCCCCc1ccc(CCC(N)(CO)CO)cc1 [FTY720],number of antigen-specific T cells in blood,greatly diminished
same,percentage of antigen-specific T cells in blood,did not significantly change
